{
  "source": "the supplement of paper PMC4862054",
  "data": [
    {"system": "DU-4475", "test": "drug sensitivity score (DSS), CellTiter-Glo (DSS (AUC-based score)); higher = stronger drug effect (viability inhibition or cytotoxicity); extreme values may be limits of the assay", "conditions": "incubation time: 72 h", "method_in_brief": "(§1)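 The drug sensitivity score was computed from the area under the fitted dose-response curve. Breast cancer cell lines in 20 µl suspension went into 384-well plates holding compound at 5 concentrations (10-fold steps over a 10,000-fold, compound-specific range) for 72 h of incubation. CellTox Green fluorescence (485/520 nm) was read before CellTiter-Glo luminescence, the latter after 10 min at room temperature, and each plate was normalised to 0.1 % DMSO and a positive kill control.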", "values": [
      {"smiles": "CS(=O)(=O)OCCCCOS(C)(=O)=O", "note": "[Busulfan]", "drug sensitivity score": 0},
      {"smiles": "COc1cccc2c1C(=O)c1c(O)c3c(c(O)c1C2=O)C[C@@](O)(C(C)=O)C[C@@H]3O[C@H]1C[C@H](N)[C@H](O)[C@H](C)O1", "note": "[Daunorubicin]", "drug sensitivity score": 7.7},
      {"smiles": "FC(F)c1nc2ccccc2n1-c1nc(N2CCOCC2)nc(N2CCOCC2)n1", "note": "[ZSTK474]", "drug sensitivity score": 1.87},
      {"smiles": "CN1CCN(c2ccc3nc(-c4c(N)c5c(F)cccc5[nH]c4=O)[nH]c3c2)CC1", "note": "[Dovitinib]", "drug sensitivity score": 0}
    ]},
    {"system": "HCC1143", "test": "drug sensitivity score (DSS), CellTiter-Glo (DSS (AUC-based score)); higher = stronger drug effect (viability inhibition or cytotoxicity); extreme values may be limits of the assay", "conditions": "incubation time: 72 h", "method_in_brief": "as §1", "values": [
      {"smiles": "C[C@@H]1C=C2C(=O)O[C@@H]3CC[C@H](C1)[C@]23O", "note": "[Galiellalactone]", "drug sensitivity score": 0},
      {"smiles": "C[C@@H]1CCN(C(=O)CC#N)C[C@@H]1N(C)c1ncnc2[nH]ccc12", "note": "[Tofacitinib]", "drug sensitivity score": 0},
      {"smiles": "Nc1nccc(-c2c(-c3ccc(F)cc3)ncn2C2CCCCC2)n1", "drug sensitivity score": 0},
      {"smiles": "CCOc1cc2ncc(C#N)c(Nc3ccc(OCc4ccccn4)c(Cl)c3)c2cc1NC(=O)/C=C/CN(C)C", "note": "[Neratinib]", "drug sensitivity score": 0},
      {"smiles": "C[C@@]1(C(=O)Nc2ccc(F)nc2)CCCN1c1nc(Nc2cc(C3CC3)n[nH]2)c2cccn2n1", "drug sensitivity score": 6.03},
      {"smiles": "C#Cc1cccc(Nc2ncnc3cc(OC)c(OCCCCCCC(=O)NO)cc23)c1", "note": "[CUDC-101]", "drug sensitivity score": 11.1},
      {"smiles": "COc1ncc(-c2ccc3nccc(-c4ccnnc4)c3c2)cc1NS(=O)(=O)c1ccc(F)cc1F", "drug sensitivity score": 13.3},
      {"smiles": "Cn1c(=O)c(F)c(Nc2ccc(I)cc2F)c2c(=O)n(C[C@@H](O)CO)cnc21", "note": "[TAK-733]", "drug sensitivity score": 0},
      {"smiles": "COC1=CC(c2cc3ccccc3[nH]2)=N/C1=C\\c1[nH]c(C)cc1C", "note": "[Obatoclax]", "drug sensitivity score": 0},
      {"smiles": "CS(=O)(=O)OCCCCOS(C)(=O)=O", "note": "[Busulfan]", "drug sensitivity score": 0},
      {"smiles": "COc1cccc2c1C(=O)c1c(O)c3c(c(O)c1C2=O)C[C@@](O)(C(C)=O)C[C@@H]3O[C@H]1C[C@H](N)[C@H](O)[C@H](C)O1", "note": "[Daunorubicin]", "drug sensitivity score": 3.23},
      {"smiles": "FC(F)c1nc2ccccc2n1-c1nc(N2CCOCC2)nc(N2CCOCC2)n1", "note": "[ZSTK474]", "drug sensitivity score": 6.07},
      {"smiles": "CN1CCN(c2ccc3nc(-c4c(N)c5c(F)cccc5[nH]c4=O)[nH]c3c2)CC1", "note": "[Dovitinib]", "drug sensitivity score": 0}
    ]},
    {"system": "MCF-10A", "test": "drug sensitivity score (DSS), CellTiter-Glo (DSS (AUC-based score)); higher = stronger drug effect (viability inhibition or cytotoxicity); extreme values may be limits of the assay", "conditions": "incubation time: 72 h", "method_in_brief": "as §1", "values": [
      {"smiles": "C[C@@H]1C=C2C(=O)O[C@@H]3CC[C@H](C1)[C@]23O", "note": "[Galiellalactone]", "drug sensitivity score": 0},
      {"smiles": "C[C@@H]1CCN(C(=O)CC#N)C[C@@H]1N(C)c1ncnc2[nH]ccc12", "note": "[Tofacitinib]", "drug sensitivity score": 0},
      {"smiles": "Nc1nccc(-c2c(-c3ccc(F)cc3)ncn2C2CCCCC2)n1", "drug sensitivity score": 0.945},
      {"smiles": "CCOc1cc2ncc(C#N)c(Nc3ccc(OCc4ccccn4)c(Cl)c3)c2cc1NC(=O)/C=C/CN(C)C", "note": "[Neratinib]", "drug sensitivity score": 11},
      {"smiles": "C[C@@]1(C(=O)Nc2ccc(F)nc2)CCCN1c1nc(Nc2cc(C3CC3)n[nH]2)c2cccn2n1", "drug sensitivity score": 25},
      {"smiles": "C#Cc1cccc(Nc2ncnc3cc(OC)c(OCCCCCCC(=O)NO)cc23)c1", "note": "[CUDC-101]", "drug sensitivity score": 17.5},
      {"smiles": "COc1ncc(-c2ccc3nccc(-c4ccnnc4)c3c2)cc1NS(=O)(=O)c1ccc(F)cc1F", "drug sensitivity score": 17.5},
      {"smiles": "Cn1c(=O)c(F)c(Nc2ccc(I)cc2F)c2c(=O)n(C[C@@H](O)CO)cnc21", "note": "[TAK-733]", "drug sensitivity score": 18.5},
      {"smiles": "COC1=CC(c2cc3ccccc3[nH]2)=N/C1=C\\c1[nH]c(C)cc1C", "note": "[Obatoclax]", "drug sensitivity score": 0},
      {"smiles": "CS(=O)(=O)OCCCCOS(C)(=O)=O", "note": "[Busulfan]", "drug sensitivity score": 0},
      {"smiles": "COc1cccc2c1C(=O)c1c(O)c3c(c(O)c1C2=O)C[C@@](O)(C(C)=O)C[C@@H]3O[C@H]1C[C@H](N)[C@H](O)[C@H](C)O1", "note": "[Daunorubicin]", "drug sensitivity score": 2.11},
      {"smiles": "FC(F)c1nc2ccccc2n1-c1nc(N2CCOCC2)nc(N2CCOCC2)n1", "note": "[ZSTK474]", "drug sensitivity score": 10.9},
      {"smiles": "CN1CCN(c2ccc3nc(-c4c(N)c5c(F)cccc5[nH]c4=O)[nH]c3c2)CC1", "note": "[Dovitinib]", "drug sensitivity score": 0}
    ]},
    {"system": "MDA-MB-453", "test": "drug sensitivity score (DSS), CellTiter-Glo (DSS (AUC-based score)); higher = stronger drug effect (viability inhibition or cytotoxicity); extreme values may be limits of the assay", "conditions": "incubation time: 72 h", "method_in_brief": "as §1", "values": [
      {"smiles": "C[C@@H]1C=C2C(=O)O[C@@H]3CC[C@H](C1)[C@]23O", "note": "[Galiellalactone]", "drug sensitivity score": 0},
      {"smiles": "C[C@@H]1CCN(C(=O)CC#N)C[C@@H]1N(C)c1ncnc2[nH]ccc12", "note": "[Tofacitinib]", "drug sensitivity score": 0},
      {"smiles": "Nc1nccc(-c2c(-c3ccc(F)cc3)ncn2C2CCCCC2)n1", "drug sensitivity score": 0.568},
      {"smiles": "CCOc1cc2ncc(C#N)c(Nc3ccc(OCc4ccccn4)c(Cl)c3)c2cc1NC(=O)/C=C/CN(C)C", "note": "[Neratinib]", "drug sensitivity score": 8.47},
      {"smiles": "C[C@@]1(C(=O)Nc2ccc(F)nc2)CCCN1c1nc(Nc2cc(C3CC3)n[nH]2)c2cccn2n1", "drug sensitivity score": 0},
      {"smiles": "C#Cc1cccc(Nc2ncnc3cc(OC)c(OCCCCCCC(=O)NO)cc23)c1", "note": "[CUDC-101]", "drug sensitivity score": 21.1},
      {"smiles": "COc1ncc(-c2ccc3nccc(-c4ccnnc4)c3c2)cc1NS(=O)(=O)c1ccc(F)cc1F", "drug sensitivity score": 19.4},
      {"smiles": "Cn1c(=O)c(F)c(Nc2ccc(I)cc2F)c2c(=O)n(C[C@@H](O)CO)cnc21", "note": "[TAK-733]", "drug sensitivity score": 0},
      {"smiles": "COC1=CC(c2cc3ccccc3[nH]2)=N/C1=C\\c1[nH]c(C)cc1C", "note": "[Obatoclax]", "drug sensitivity score": 2.69},
      {"smiles": "CS(=O)(=O)OCCCCOS(C)(=O)=O", "note": "[Busulfan]", "drug sensitivity score": 0},
      {"smiles": "COc1cccc2c1C(=O)c1c(O)c3c(c(O)c1C2=O)C[C@@](O)(C(C)=O)C[C@@H]3O[C@H]1C[C@H](N)[C@H](O)[C@H](C)O1", "note": "[Daunorubicin]", "drug sensitivity score": 3.7},
      {"smiles": "FC(F)c1nc2ccccc2n1-c1nc(N2CCOCC2)nc(N2CCOCC2)n1", "note": "[ZSTK474]", "drug sensitivity score": 12.9},
      {"smiles": "CN1CCN(c2ccc3nc(-c4c(N)c5c(F)cccc5[nH]c4=O)[nH]c3c2)CC1", "note": "[Dovitinib]", "drug sensitivity score": 0}
    ]},
    {"system": "SK-BR-3", "test": "drug sensitivity score (DSS), CellTiter-Glo (DSS (AUC-based score)); higher = stronger drug effect (viability inhibition or cytotoxicity); extreme values may be limits of the assay", "conditions": "incubation time: 72 h", "method_in_brief": "as §1", "values": [
      {"smiles": "C[C@@H]1C=C2C(=O)O[C@@H]3CC[C@H](C1)[C@]23O", "note": "[Galiellalactone]", "drug sensitivity score": 0}
    ]}
  ]
}
